This passage reports inhibition results from US20090197880A1 (Genelabs Technologies, Inc., priority 2007, published 2009).

The first assay is described as follows: HCV replicon assay (luciferase) in ET (Huh-lucubineo-ET) cell line. It is filed as cell-based. Particulars: Hepatitis C virus; tested at 5 μM; inhibition of replication relative to no compound control; ET replicon cells, luciferase 48-72 hours.
Regarding `Fc1ccc(-c2cc(Cn3cc4nc(-c5ccccc5F)nc-4cn3)on2)c(C(F)(F)F)c1` [Compound 115, 2-(2-Fluoro-phenyl)-5-[3-(4-fluoro-2-trifluoromethyl-phenyl)-isoxazol-5-ylmethyl]-5H-imidazo[4,5-d]pyridazine], the inhibition at 5 µM is 67.6%.

The molecule `COc1ccc(-c2cc(Cn3cc4nc(-c5ccccc5F)nc-4cn3)on2)cc1` [Compound 109, 2-(2-Fluoro-phenyl)-5-[3-(4-methoxy-phenyl)-isoxazol-5-ylmethyl]-5H-imidazo[4,5-d]pyridazine] displayed an inhibition at 5 µM of 98%.

`Fc1cccc(-c2nc3cnn(Cc4cc(-c5ccc(Cl)cc5)no4)cc-3n2)c1F` [Compound 104, 5-[3-(4-Chloro-phenyl)-isoxazol-5-ylmethyl]-2-(2,3-difluoro-phenyl)-5H-imidazo[4,5-d]pyridazine] displayed an inhibition at 5 µM of 99.7%.

Turning to `CC(C)Oc1ccc(-c2cc(Cn3cc4nc(-c5ccccc5F)nc-4cn3)on2)cc1` [Compound 112, 2-(2-Fluoro-phenyl)-5-[3-(4-isopropoxy-phenyl)-isoxazol-5-ylmethyl]-5H-imidazo[4,5-d]pyridazine], the inhibition at 5 µM is 80.9%.

The assay is the same for the next values; noted with them: Hepatitis C virus; tested at 10 μM; inhibition of replication relative to no compound control; ET replicon cells, luciferase 48-72 hours; read-out: % inhition at 10 μM.
For the molecule `CCCCc1ccc(-c2cc(Cn3cc4nc(-c5cccc(F)c5F)nc-4cn3)on2)c(F)c1` [Compound 303, 5-[3-(4-Butyl-2-fluoro-phenyl)-isoxazol-5-ylmethyl]-2-(2,3-difluoro-phenyl)-5H-imidazo[4,5-d]pyridazine], the inhibition at 10 µM stood at 99.8%.

On to `O=C(O)c1cccc(COc2ccc(-c3cc(Cn4cc5nc(-c6cccc(F)c6F)nc-5cn4)on3)cc2)c1` [Compound 159, 3-(4-{5-[2-(2,3-Difluoro-phenyl)-imidazo[4,5-d]pyridazin-5-ylmethyl]-isoxazol-3-yl}-phenoxymethyl)-benzoic Acid], for which the inhibition at 10 µM was determined as 49.4%.

Consider `Fc1cccc(-c2nc3cnn(Cc4cc(-c5ccc(OCC6CCOCC6)cc5C(F)(F)F)no4)cc-3n2)c1F` [Compound 319, 2-(2,3-Difluoro-phenyl)-5-{3-[4-(tetrahydro-pyran-4-ylmethoxy)-2-trifluoromethyl-phenyl]-isoxazol-5-ylmethyl}-5H-imidazo[4,5-d]pyridazine], for which the inhibition at 10 µM is 100%.

For the molecule `Fc1ccc(-c2cc(Cn3cc4nc(-c5ccccc5F)nc-4cn3)on2)c(C(F)(F)F)c1` [Compound 115, 2-(2-Fluoro-phenyl)-5-[3-(4-fluoro-2-trifluoromethyl-phenyl)-isoxazol-5-ylmethyl]-5H-imidazo[4,5-d]pyridazine], the inhibition at 10 µM worked out at 75.3%.

Consider `Fc1cc(C(F)(F)F)ccc1-c1cc(Cn2ccc3nc(-c4cccc(F)c4F)nc-3n2)on1` [Compound 247, 6-(2,3-Difluoro-phenyl)-2-[3-(2-fluoro-4-trifluoromethyl-phenyl)-isoxazol-5-ylmethyl]-2H-imidazo[4,5-c]pyridazine], for which the inhibition at 10 µM came out at 80%.

Take `FC(F)(F)c1ccc(-c2cc(Cn3cc4nc(Nc5ccccc5)nc-4cn3)on2)c(C(F)(F)F)c1` [Compound 248, {5-[3-(2,4-Bis-trifluoromethyl-phenyl)-isoxazol-5-ylmethyl]-5H-imidazo[4,5-d]pyridazin-2-yl}-phenyl-amine]: the inhibition at 10 µM is 15.5%.

With `CCCOc1ccc(-c2cc(Cn3cc4nc(-c5ccc(OC)cc5)nc-4cn3)on2)cc1` [Compound 138, 2-(4-Methoxy-phenyl)-5-[3-(4-propoxy-phenyl)-isoxazol-5-ylmethyl]-5H-imidazo[4,5-d]pyridazine], the inhibition at 10 µM was 48.8%.

As to `COC(=O)c1ccc(-c2cc(Cn3cc4nc(-c5cccc(F)c5F)nc-4cn3)on2)cc1` [Compound 209, 4-{5-[2-(2,3-difluoro-phenyl)-imidazo[4,5-d]pyridazin-5-ylmethyl]-isoxazol-3-yl}-benzoic acid methyl ester], the inhibition at 10 µM came to 93.6%.

As to `FC(F)(F)c1ccc(-c2cc(Cn3cc4nc(NC5CCCc6ccccc65)nc-4cn3)on2)c(C(F)(F)F)c1` (centres unmarked) [Compound 260, {5-[3-(2,4-Bis-trifluoromethyl-phenyl)-isoxazol-5-ylmethyl]-5H-imidazo[4,5-d]pyridazin-2-yl}-(1,2,3,4-tetrahydro-naphthalen-1-yl)-amine], the inhibition at 10 µM is 53.2%.

Take `Fc1cccc(-c2nc3cnn(Cc4cc(-c5ccc(OCCCC(F)(F)F)cc5)no4)cc-3n2)c1F` [Compound 326, 2-(2,3-Difluoro-phenyl)-5-{3-[4-(4,4,4-trifluoro-butoxy)-phenyl]-isoxazol-5-ylmethyl}-5H-imidazo[4,5-d]pyridazine]: the inhibition at 10 µM stood at 99.3%.

In the case of `CC(=O)OCCCOc1ccc(-c2cc(Cn3cc4nc(-c5cccc(F)c5F)nc-4cn3)on2)cc1` [Compound 272, Acetic Acid 3-(4-{5-[2-(2,3-difluoro-phenyl)-imidazo[4,5-d]pyridazin-5-ylmethyl]-isoxazol-3-yl}-phenoxy)-propyl Ester], the inhibition at 10 µM came out at 91.1%.

As for `Fc1cccc(F)c1-c1nc2cnn(Cc3cc(-c4ccc(C(F)(F)F)cc4C(F)(F)F)no3)cc-2n1` [Compound 140, 5-[3-(2,4-Bis-trifluoromethyl-phenyl)-isoxazol-5-ylmethyl]-2-(2,6-difluoro-phenyl)-5H-imidazo[4,5-d]pyridazine], the inhibition at 10 µM stood at 82.7%.

Consider `Cc1nc(C)c(-c2cc(Cn3cc4nc(-c5cccc(F)c5F)nc-4cn3)on2)s1` [Compound 149, 2-(2,3-Difluoro-phenyl)-5-[3-(2,4-dimethyl-thiazol-5-yl)-isoxazol-5-ylmethyl]-5H-imidazo[4,5-d]pyridazine], for which the inhibition at 10 µM came to 43.7%.

`CC(C)Cc1ccc(-c2cc(Cn3cc4nc(-c5cccc(F)c5F)nc-4cn3)on2)cc1` [Compound 190, 2-(2,3-Difluoro-phenyl)-5-[3-(4-isobutyl-phenyl)-isoxazol-5-ylmethyl]-5H-imidazo[4,5-d]pyridazine]: the inhibition at 10 µM is 99.9%.

As for `COc1ccc(-c2cc(Cn3cc4nc(-c5ccccc5F)nc-4cn3)on2)cc1` [Compound 109, 2-(2-Fluoro-phenyl)-5-[3-(4-methoxy-phenyl)-isoxazol-5-ylmethyl]-5H-imidazo[4,5-d]pyridazine], the inhibition at 10 µM was found to be 95.4%.

Consider `Fc1cccc(-c2nc3cnn(Cc4cc(-c5ccc(Cl)cc5)no4)cc-3n2)c1F` [Compound 104, 5-[3-(4-Chloro-phenyl)-isoxazol-5-ylmethyl]-2-(2,3-difluoro-phenyl)-5H-imidazo[4,5-d]pyridazine], for which the inhibition at 10 µM is 99.7%.

`CN(C)c1ccc(-c2cc(Cn3cc4nc(-c5cccc(F)c5F)nc-4cn3)on2)cc1` [Compound 208, (4-{5-[2-(2,3-Difluoro-phenyl)-imidazo[4,5-d]pyridazin-5-ylmethyl]-isoxazol-3-yl}-phenyl)-dimethyl-amine]: the inhibition at 10 µM amounted to 69.7%.

`C#CCOc1ccc(-c2cc(Cn3cc4nc(-c5cccc(F)c5F)nc-4cn3)on2)cc1` [Compound 327]: the inhibition at 10 µM turned out to be 99.7%.

Turning to `Fc1cccc(-c2nc3cnn(Cc4cc(-c5ccc(OCC6CCOC6)cc5C(F)(F)F)no4)cc-3n2)c1F` (centres unmarked) [Compound 329, 2-(2,3-Difluoro-phenyl)-5-{3-[4-(tetrahydro-furan-3-ylmethoxy)-2-trifluoromethyl-phenyl]-isoxazol-5-ylmethyl}-5H-imidazo[4,5-d]pyridazine], the inhibition at 10 µM was 99.5%.

On to `Cc1cc(OC(F)(F)F)ccc1-c1cc(Cn2cc3nc(-c4cccc(F)c4F)nc-3cn2)on1` [Compound 177, 2-(2,3-Difluoro-phenyl)-5-[3-(2-methyl-4-trifluoromethoxy-phenyl)-isoxazol-5-ylmethyl]-5H-imidazo[4,5-d]pyridazine], for which the inhibition at 10 µM stood at 99.6%.

For the molecule `CC(C)(c1cc(-c2ccc(C(F)(F)F)cc2C(F)(F)F)no1)n1cc2nc(-c3cccc(F)c3F)nc-2cn1` [Compound 227, 5-{1-[3-(2,4-Bis-trifluoromethyl-phenyl)-isoxazol-5-yl]-1-methyl-ethyl}-2-(2,3-difluoro-phenyl)-5H-imidazo[4,5-d]pyridazine], the inhibition at 10 µM was 97.9%.

Consider `CCCOC(=O)c1cc(-c2cc(Cn3cc4nc(-c5cccc(F)c5F)nc-4cn3)on2)ccc1OCCC` [Compound 197, 5-{5-[2-(2,3-Difluoro-phenyl)-imidazo[4,5-d]pyridazin-5-ylmethyl]-isoxazol-3-yl}-2-propoxy-benzoic acid propyl ester], for which the inhibition at 10 µM was found to be 54.1%.

As to `FC(F)(F)c1ccc(-c2cc(Cn3cc4nc(-c5cccc6[nH]ccc56)nc-4cn3)on2)c(C(F)(F)F)c1` [Compound 136, 5-[3-(2,4-Bis-trifluoromethyl-phenyl)-isoxazol-5-ylmethyl]-2-(1H-indol-4-yl)-5H-imidazo[4,5-d]pyridazine], the inhibition at 10 µM worked out at 5.84%.

With `Nc1nn(Cc2cc(-c3ccc(C(F)(F)F)cc3F)no2)cc2nc(-c3cccc(F)c3F)nc1-2` [Compound 236, 2-(2,3-Difluoro-phenyl)-6-[3-(2-fluoro-4-trifluoromethyl-phenyl)-isoxazol-5-ylmethyl]-6H-imidazo[4,5-d]pyridazin-4-ylamine], the inhibition at 10 µM is 76.8%.

As for `Cc1csc(-c2cc(Cn3cc4nc(-c5cccc(F)c5F)nc-4cn3)on2)n1` [Compound 180, 2-(2,3-Difluoro-phenyl)-5-[3-(4-methyl-thiazol-2-yl)-isoxazol-5-ylmethyl]-5H-imidazo[4,5-d]pyridazine], the inhibition at 10 µM came to 83.3%.

Regarding `COCCCOc1ccc(-c2cc(Cn3cc4nc(-c5cccc(F)c5F)nc-4cn3)on2)cc1` [Compound 312, 2-(2,3-Difluoro-phenyl)-5-{3-[4-(3-methoxy-propoxy)-phenyl]-isoxazol-5-ylmethyl}-5H-imidazo[4,5-d]pyridazine], the inhibition at 10 µM stood at 98.1%.

In the case of `CC(F)(F)c1ccc(-c2cc(Cn3cc4nc(-c5cccc(F)c5F)nc-4cn3)on2)cc1` [Compound 314, 5-{3-[4-(1,1-Difluoro-ethyl)-phenyl]-isoxazol-5-ylmethyl}-2-(2,3-difluoro-phenyl)-5H-imidazo[4,5-d]pyridazine], the inhibition at 10 µM stood at 99.8%.

In the case of `Fc1cccc(-c2nc3cnn(Cc4cc(-c5ccccc5)no4)cc-3n2)c1F` [Compound 337, 2-(2,3-Difluoro-phenyl)-5-(3-phenyl-isoxazol-5-ylmethyl)-5H-imidazo[4,5-d]pyridazine], the inhibition at 10 µM was 68.5%.

In the case of `Fc1ccc(-c2cc(Cn3cc4nc(-c5cccc(F)c5F)nc-4cn3)on2)c(OC(F)(F)F)c1` [Compound 160, 2-(2,3-Difluoro-phenyl)-5-[3-(4-fluoro-2-trifluoromethoxy-phenyl)-isoxazol-5-ylmethyl]-5H-imidazo[4,5-d]pyridazine], the inhibition at 10 µM was found to be 61.5%.

In the case of `Fc1ccccc1-c1nc2cnn(Cc3cc(-c4ccc(I)cc4)no3)cc-2n1` [Compound 282, 2-(2-Fluoro-phenyl)-5-[3-(4-iodo-phenyl)-isoxazol-5-ylmethyl]-5H-imidazo[4,5-d]pyridazine], the inhibition at 10 µM is 83.4%.

With `CC(C)Oc1ccc(-c2cc(Cn3cc4nc(-c5ccccc5F)nc-4cn3)on2)cc1` [Compound 112, 2-(2-Fluoro-phenyl)-5-[3-(4-isopropoxy-phenyl)-isoxazol-5-ylmethyl]-5H-imidazo[4,5-d]pyridazine], the inhibition at 10 µM was 85.9%.
